Assay results reported in BigSolDB 2.1.

O=C1CCCC(=O)C1
solubility (mole fraction)
Details | 288.15 K | 293.15 K | 298.15 K | 303.15 K | 308.15 K | 313.15 K | 318.15 K | 323.15 K | 328.15 K
in 2-butanone | 0.0273 | 0.0355 | 0.0534 | 0.0727 | 0.0991 | 0.133 | 0.162 | 0.215 | 0.264
in THF | 0.0855 | 0.109 | 0.135 | 0.164 | 0.208 | 0.246 | 0.307 | 0.347 | 0.392
in acetone | 0.0488 | 0.0624 | 0.0834 | 0.108 | 0.132 | 0.173 | 0.211 | 0.245 | 0.282
in acetonitrile | 0.0156 | 0.0198 | 0.0258 | 0.035 | 0.044 | 0.0538 | 0.0685 | 0.09 | 0.113
in chloroform | 0.238 | 0.256 | 0.29 | 0.317 | 0.364 | 0.4 | 0.432 | 0.47 | 0.505
in ethyl acetate | 0.0126 | 0.0155 | 0.0194 | 0.0244 | 0.0307 | 0.039 | 0.0515 | 0.0626 | 0.0819
in ethyl butyrate | 0.0083 | 0.0103 | 0.0125 | 0.0148 | 0.0184 | 0.0221 | 0.0266 | 0.0322 | 0.0379
in ethyl formate | 0.0109 | 0.0141 | 0.0182 | 0.0231 | 0.0287 | 0.0359 | 0.0492 | 0.0591 | 0.0694
in ethyl propionate | 0.0118 | 0.0139 | 0.017 | 0.0203 | 0.0246 | 0.0294 | 0.0353 | 0.041 | 0.0495
in isopropyl acetate | 0.0125 | 0.0146 | 0.017 | 0.0194 | 0.0228 | 0.0269 | 0.0302 | 0.0368 | 0.0424
in methyl acetate | 0.0146 | 0.02 | 0.0247 | 0.0313 | 0.0406 | 0.0524 | 0.0714 | 0.0886 | 0.105
in n-butyl acetate | 0.0119 | 0.0141 | 0.0168 | 0.0202 | 0.0237 | 0.0282 | 0.0347 | 0.0403 | 0.0457
in n-propyl acetate | 0.0121 | 0.0147 | 0.0176 | 0.0214 | 0.0263 | 0.0324 | 0.0381 | 0.0457 | 0.0535
in toluene | 0.00171 | 0.00244 | 0.00335 | 0.00445 | 0.00577 | 0.00803 | 0.0106 | 0.0136 | 0.0165
